Consider 2 compounds from patent US9232796B2, “Herbicidal compositions comprising 4-amino-3-chloro-5-fluoro-6-(4-chloro-2-fluoro-3-methoxyphenyl) pyridine-2-carboxylic acid or a derivative thereof and acetyl-CoA carboxylase (ACCase) inhibitors” (DOW AGROSCIENCES LLC, priority 2012, dated 2016).

In assay [1] the test system is BRAPP. The experiment in a line: Example I postemergence foliar-applied, greenhouse, direct seeded rice weeds. Type of assay: in vivo, Brachiaria platyphylla (Griseb.) Nash. From the text:
(§1) Seeds or nutlets of the desired test plant species were planted in a soil matrix prepared by mixing a loam or sandy loam soil (e.g., 28.6 percent silt, 18.8 percent clay, and 52.6 percent sand, with a pH of about 5.8 and an organic matter content of about 1.8 percent) and calcareous grit in an 80 to 20 ratio. The soil matrix was contained in plastic pots with a volume of 1 quart and a surface area of 83.6 square centimeters (cm^2). When required to ensure good germination and healthy plants, a fungicide treatment and/or other chemical or physical treatment was applied. The plants were grown for 8-22 days in a greenhouse with an approximate 14 hr. photoperiod which was maintained at about 29° C. during the day and 26° C. during the night. Nutrients (Peters Excel® 15-5-15 5-Ca 2-Mg and iron chelate) were applied in the irrigation solution as needed and water was added on a regular basis. Supplemental lighting was provided with overhead metal halide 1000-Watt lamps as necessary. The plants were employed for testing when they reached the first through fourth true leaf stage.
(§2) Treatments consisted of the acid or esters of 4-amino-3-chloro-5-fluoro-6-(4-chloro-2-fluoro-3-methoxy-phenyl)pyridine-2-carboxylic acid (Compound A), each formulated as an SC (suspension concentrate), and various herbicidal components alone and in combination.
(§3) Other herbicidal components were applied on an acid equivalent (ae) or active ingredient (ai) basis and included acetyl coA carboxylase (ACCase)-inhibiting herbicides (cyclohexanedione and aryloxyphenoxypropionate chemical classes) cyhalofop-butyl formulated as Clincher® SF (285 gr ai/L EC), diclofop-methyl formulated as Hoelon® 3EC, fenoxaprop-p-ethyl+isoxadifen-ethyl formulated as RiceStar® HT (0.58 lb./gal EC), fenoxaprop-p-ethyl+mefenpyr diethyl formulated as Puma® IEC, metamifop formulated as Metamifop EC, haloxyfop-methyl formulated as Gallant Super®, fluazifop-p-butyl formulated as Fusilade® DX, quizalofop-p-ethyl formulated as Assure® II, profoxydim formulated as Aura® 20EC, clethodim applied as Intensity®, sethoxydim formulated as Poast®, and tralkoxydim formulated as Achieve®.
(§4) Treatment requirements were calculated based upon the rates being tested, the concentration of active ingredient or acid equivalent in the formulation, and a 12 mL application volume at a rate of 187 L/ha.
(§5) For treatments comprised of formulated compounds, measured amounts of compounds were placed individually in 25 mL glass vials and diluted in a volume of 1.25% (v/v) Agri-Dex® crop oil concentrated to obtain 12× stock solutions. […] Application solutions were prepared by adding an appropriate amount of each stock solution (e.g., 1 mL) and diluted to the appropriate final concentrations with the addition of 10 mL of an aqueous mixture of 1.25% (v/v) crop oil concentrate so that the final spray solutions contained 1.25+/−0.05% (v/v) crop oil concentrate.
(§6) All stock solutions and applications solutions were visually inspected for compound compatibility prior to application. Spray solutions were applied to the plant material with an overhead Mandel track sprayer equipped with a 8002E nozzles calibrated to deliver 187 L/ha over an application area of 0.503 m^2 at a spray height of 18 to 20 inches (46 to 50 cm) above average plant canopy height. Control plants were sprayed in the same manner with the solvent blank.
(§7) The treated plants and control plants were placed in a greenhouse as described above and watered by sub-irrigation to prevent wash-off of the test compounds. After approximately 3 weeks, the condition of the test plants as compared with that of the untreated plants was determined visually and scored on a scale of 0 to 100 percent where 0 corresponds to no injury or growth inhibition and 100 corresponds to complete kill. […]

The test system of assay [2] is CYPRO. In words: Example II in-water applied, greenhouse, transplanted paddy rice weeds. Type of assay: in vivo, Cyperus rotundus L. As for the experimental part: (§8) Weed seeds or nutlets of the desired test plant species were planted in puddled soil (mud) prepared by mixing a shredded, non-sterilized mineral soil (50.5 percent silt, 25.5 percent clay, and 24 percent sand, with a pH of about 7.6 and an organic matter content of about 2.9 percent) and water at a 1:1 volumetric ratio. The prepared mud was dispensed in 365 mL aliquots into 16-ounce (oz.) non-perforated plastic pots with a surface area of 86.59 square centimeters (cm^2) leaving a headspace of 3 centimeters (cm) in each pot. Mud was allowed to dry overnight prior to planting or transplanting. Rice seeds were planted in Sun Gro MetroMix® 306 planting mixture, which typically has a pH of 6.0 to 6.8 and an organic matter content of about 30 percent, in plastic plug trays. Seedlings at the second or third leaf stage of growth were transplanted into 860 mL of mud contained in 32-oz. non-perforated plastic pots with a surface area of 86.59 cm^2 4 days prior to herbicide application. The paddy was created by filling the headspace of the pots with 2.5 to 3 cm of water. […] The plants were grown for 4-22 days in a greenhouse with an approximate 14 hr. photoperiod which was maintained at about 29° C. during the day and 26° C. during the night. Nutrients were added as Osmocote® (19:6:12, N:P:K+minor nutrients) at 2 g per 16-oz. pot and 4 g per 32-oz. pot. Water was added on a regular basis to maintain the paddy flood, and supplemental lighting was provided with overhead metal halide 1000-Watt lamps as necessary. The plants were employed for testing when they reached the first through fourth true leaf stage.
(§9) Treatments consisted of the acid or esters of 4-amino-3-chloro-5-fluoro-6-(4-chloro-2-fluoro-3-methoxy-phenyl)pyridine-2-carboxylic acid (compound A) each formulated as an SC (suspension concentrate) and various herbicidal components alone and in combination.
(§10) For formulated compounds, a measured amount was placed in an individual 100 or 200 mL glass vial and was dissolved in a volume of 1.25% (v/v) Agri-Dex® crop oil concentrate to obtain application solutions.
(§11) Applications were made by injecting with a pipetter appropriate amounts of the application solutions, individually and sequentially, into the aqueous layer of the paddy. Control plants were treated in the same manner with the solvent blank. Applications were made so that all treated plant material received the same concentrations of acetone and crop oil concentrate.
(§12) The treated plants and control plants were placed in a greenhouse as described above and water was added as needed to maintain a paddy flood. After approximately 3 weeks the condition of the test plants as compared with that of the untreated plants was determined visually and scored on a scale of 0 to 100 percent where 0 corresponds to no injury or growth inhibition and 100 corresponds to complete kill.
(§13) Colby's equation was used to determine the herbicidal effects expected from the mixtures (Colby, S. R. 1967. Calculation of the synergistic and antagonistic response of herbicide combinations. Weeds 15:20-22.).
(§14) The following equation was used to calculate the expected activity of mixtures containing two active ingredients, A and B: Expected=A+B−(A×B/100)

The subject of assay [3] is ECHCO. In words: Example I postemergence foliar-applied, greenhouse, direct seeded rice weeds. It counts as in vivo, Echinochloa colona (L.) Link.
Text: as §1, §2, §3, §4, §5, §6, §7

For assay [4], the system named is SCPJU. The description is as above. It counts as in vivo, Schoenoplectus juncoides (Roxb.) Palla.
Text: as §1, §2, §3, §4, §5, §6, §7

Assay [5] relates to SCPJU. The experiment in a line: Example II in-water applied, greenhouse, transplanted paddy rice weeds. Type of assay: in vivo, Schoenoplectus juncoides (Roxb.) Palla. Conditions: in-water. The procedure: as §8, §9, §10, §11, §12, §13, §14
Assay [6] deals with IPOHE. The experiment in a line: Example I postemergence foliar-applied, greenhouse, direct seeded rice weeds. Type of assay: in vivo, Ipomoea hederacea Jacq.
Text: as §1, §2, §3, §4, §5, §6, §7

In assay [7] the test system is FIMMI. In words: Example VI in-water applied ternary mixtures, greenhouse, transplanted paddy rice weeds. It counts as in vivo, Fimbristylis miliacea (L.) Vahl. Conditions: Table 67, 50 gai/ha, 24 DAA. As for the experimental part: (§15) Weed seeds or nutlets of the desired test plant species were planted in puddled soil (mud) prepared by mixing a shredded, non-sterilized mineral soil (50.5 percent silt, 25.5 percent clay, and 24 percent sand, with a pH of about 7.6 and an organic matter content of about 2.9 percent) and water at a 1:1 volumetric ratio. The prepared mud was dispensed in 365 mL aliquots into 16-ounce (oz.) non-perforated plastic pots with a surface area of 86.59 square centimeters (cm^2) leaving a headspace of 3 centimeters (cm) in each pot. Mud was allowed to dry overnight prior to planting or transplanting. Rice seeds were planted in Sun Gro MetroMix® 306 planting mixture, which typically has a pH of 6.0 to 6.8 and an organic matter content of about 30 percent, in plastic plug trays. Seedlings at the second or third leaf stage of growth were transplanted into 860 mL of mud contained in 32-oz. non-perforated plastic pots with a surface area of 86.59 cm^2 4 days prior to herbicide application. The paddy was created by filling the headspace of the pots with 2.5 to 3 cm of water. When required to ensure good germination and healthy plants, a fungicide treatment and/or other chemical or physical treatment was applied. The plants were grown for 4-22 days in a greenhouse with an approximate 14 hr. photoperiod which was maintained at about 29° C. during the day and 26° C. during the night. Nutrients were added as Osmocote® (19:6:12, N:P:K+minor nutrients) at 2 g per 16-oz. pot and 4 g per 32-oz. pot. Water was added on a regular basis to maintain the paddy flood, and supplemental lighting was provided with overhead metal halide 1000-Watt lamps as necessary. The plants were employed for testing when they reached the first through fourth true leaf stage.
(§16) Treatments consisted of the benzyl ester of 4-amino-3-chloro-5-fluoro-6-(4-chloro-2-fluoro-3-methoxy-phenyl)pyridine-2-carboxylic acid (Compound A), formulated as an SC (suspension concentrate), an ACCase inhibitor herbicide, and a third herbicidal component, each applied alone and in ternary combination. Forms of compound A were applied on an acid equivalent basis.
(§17) The ACCase inhibitor component was applied on an active ingredient basis and included cyhalofop-R-butyl formulated as Clincher® G and metamifop formulated as Metamifop EC. Other herbicidal components were applied on an active ingredient or acid equivalent basis depending on the compound and included penoxsulam formulated as Grasp® SC, bentazon sodium formulated as Basagran®, triclopyr […] (TEA) salt formulated as Grandstand® R, benzobicyclon formulated as Benzobicyclon, benfuresate formulated as Full Slot® WG, pyraclonil formulated as Pyraclon® Flowable, mefenacet (technical grade material), and pretilachlor (technical grade material).
(§18) Treatment requirements for each compound or herbicidal component were calculated based upon the rates being tested, the concentration of active ingredient or acid equivalent in the formulation, an application volume of 1 mL per component per pot, and an application area of 86.59 cm^2 per pot.
as §10
(§19) For technical grade compounds, a weighed amount was placed in an individual 100 to 200 mL glass vial and was dissolved in a volume of acetone to obtain concentrated stock solutions.
(§20) Applications were made by injecting with a pipetter appropriate amounts of the application solutions, into the aqueous layer of the paddy. Control plants were treated in the same manner with the solvent blank. Applications were made so that all treated plant material received the same concentrations of acetone and crop oil concentrate.
(§21) The treated plants and control plants were placed in a greenhouse as described above and water was added as needed to maintain a paddy flood. […]

Assay [8] has as its system ECHCG. The assay is described as above. Type of assay: in vivo, Echinochloa crus-galli (L.) Beauv. Particulars: Table 67, 100 gai/ha, 21 DAA. As for the experimental part: as §15, §16, §17, §18, §10, §19, §20, §21
In assay [9] the test system is ECHOR. Described as above. Type of assay: in vivo, Echinochloa oryzoides (Ard.) Fritsch. The procedure:
as §15, §16, §17, §18, §10, §19, §20, §21

Take `COC(=O)[C@@H](C)Oc1ccc(Oc2ncc(C(F)(F)F)cc2Cl)cc1` [Haloxyfop-methyl, methyl(2R)-2-[4-[[3-chloro-5-(trifluoromethyl)-2-pyridinyl]oxy]phenoxy]propanoate]: the “Visual Weed Control (%) - 20 DAA BRAPP Obs” value in [1] (6.75 gai/ha) and in [1] (13.5 gai/ha) was 0% in each case. In addition, the “Visual Weed Control (%) - 20 DAA CYPRO Obs” value in assay [2] (13.5 gai/ha) and in assay [2] (27 gai/ha) was 0% each time. The “Visual Weed Control (%) - 20 DAA ECHCO Obs” value in assay [3] (6.75 gai/ha), in [3] (13.5 gai/ha) and in assay [3] (27 gai/ha) was 0% in each case. Also, the “Visual Weed Control (%) - 20 DAA SCPJU Obs” value in [4] (6.75 gai/ha), in assay [4] (13.5 gai/ha), in [4] (27 gai/ha), in assay [5] (13.5 gai/ha) and in assay [5] (27 gai/ha) was 0% throughout. The “Visual Weed Control (%) - 20 DAA IPOHE Obs” value in assay [6] (6.75 gai/ha), in assay [6] (13.5 gai/ha) and in assay [6] (27 gai/ha) was 0% in each case.
Regarding `CS(=O)(=O)c1ccc(C(=O)C2=C(Sc3ccccc3)C3CCC(C3)C2=O)c(Cl)c1` (stereo not shown) [Benzobicylon], in assay [7], the “Visual Weed Control (%) - 24 DAA FIMMI Obs” value was 68%. Also, the “Visual Weed Control (%) - 21 DAA ECHCG Obs” value in assay [8] is given as 20%. Also, the “Visual Weed Control (%) - 24 DAA ECHOR Obs” value in assay [9] (Table 67, 25 gai/ha) came to 10%; in assay [9] (Table 67, 50 gai/ha), 10%.
